According to ChEMBL document CHEMBL1130058, “Structure-cytoprotective activity relationship of simple molecules containing an alpha,beta-unsaturated carbonyl system” (1997):

Organism: Rattus norvegicus
Test: Gastric cytoprotective activity in male wistar rat
Type: functional

SMILES | Cytoprotective effect
CC1=CC(=O)CC1 | 4.3
CC1CC(O)=CC(=O)O1 (centres undefined) | 4.66
O=C(O)/C=C/c1ccoc1 | 4.6
C/C=C(/C)C(=O)OC | 5
COC(=O)C=C(C)C | 4.5
C/C=C(\C)C(=O)OCC | 4.8
COc1cc2c(c3oc(=O)ccc13)OCO2 | 4.2
C=C(C=O)C1CCC(C)(O)CC1 (centres undefined) | 0.7
CCOC(=O)CC(=O)c1ccoc1 | 4.75
C=C(C)C(=O)OC | 4.8
O=C1C=CCC1 | 1.3
C/C=C(\C)C(=O)O | 5
C=C(C=O)C1CC=C(C)CC1 (centres undefined) | 0.9
CC1=CC(=O)C(=C(C)C)CC1 | 4.3
O=C1C=CCCO1 | 0.55
C/C=C(\C)C(=O)OC | 5
C/C=C(/C)C(=O)O | 3.5
C/C=C(\C)C=O [2-methyl-(E)-2-butenal] | 4.6
O=c1cc(O)c2ccccc2o1 [4-HYDROXYCOUMARINS] | 4.62
C=CC(=O)OCC [ACRYLIC ACID ETHYL ESTER] | 4.3
C=CC#N [ACRYLONITRILE] | 3.5
O=C/C=C/c1ccccc1 [CINNAMALDEHYDE] | 4.5
O=C(O)/C=C/c1ccccc1 [CINNAMIC ACID] | 5
O=c1ccc2ccccc2o1 [COUMARIN] | 4.7
COC(=O)/C=C/c1ccccc1 [E-METHYL CINNAMATE] | 2.9
COc1cc2ccc(=O)oc2c(O)c1O [FRAXETIN] | 4.75
C#CC(=O)OCC [PROPYNOIC ACID ETHYL ESTER] | 0.43
C=C1CCOC1=O [TULIPALINE A] | 0.25
O=c1ccc2ccc(O)cc2o1 [UMBELLIFERONE] | 3.8
